From paper PMC6272301, “Inhibition of Oxidative Stress and Skin Aging-Related Enzymes by Prenylated Chalcones and Other Flavonoids from Helichrysum teretifolium” (Molecules, 2015)
Where “and” joins values, the source holds several entries; their conditions need not be identical. Equal values may be shown once.

How the values were obtained:
[1] = Automated ORAC assay, peroxyl radical (AAPH; ORAC ROO.); conditions: peroxyl radical from AAPH, 37 °C; Trolox equivalents
Protocol: (§1) 3.4.2. Automated Oxygen Radicals Absorbance Capacity (ORAC) Assay
(§2) ORAC was measured according to the method described by Prior [30], with some modifications. […] The copper-initiated prooxidant activity was calculated using [(AreaBlank − AreaSample)/AreaBlank] × 100 and expressed as prooxidant units; one unit equals the prooxidant activity that reduces the area under the fluorescein decay curve by 1% in the ORAC assay.

[2] = Automated ORAC assay, hydroxyl radical (H2O2-Cu2+; ORAC OH.); conditions: hydroxyl radical from H2O2 0.3% - Cu2+ 18 µM, 37 °C; Trolox equivalents
Protocol: as §1, §2

[3] = target: T1, elastase (from porcine pancreas) (Sus scrofa, UniProt P00772); assay: Elastase inhibition assay; assay type: biochemical; conditions: substrate SANA, 100 μg/mL optimum concentration; for IC50: read-out: Inhibitory Activitis (IC50) Elastase (converted)
T1 construct: purchased Sigma-Aldrich, Inc. (St. Louis, MO, USA); host or cells: porcine pancreas
Protocol: (§3) Organic solvents, methanol, acetonitrile (HPLC grade), ethanol, ethyl acetate, dichloromethane and hexane were supplied by Merck (Cape Town, South Africa). TLC was conducted on normal-phase (Merck) Silica gel 60 PF254 pre-coated aluminum plates. Column chromatography was performed using silica gel 60 H (0.040–0.063 mm particle size, Merck) and Sephadex LH-20 (Sigma-Aldrich, Cape Town, South Africa). NMR spectra were recorded on an Avance 400 MHz NMR spectrometer (Bruker, Rheinstetten, Germany) in deuterated chloroform and acetone, using the solvent signals as internal reference. HRMS analysis was conducted on an Ultimate 3000 LC (Dionex Sunnyvale, CA, USA) coupled to a Bruker QTOF with electrospray ionization (ESI) interface working in the positive ion mode.
3.4.6. Elastase Inhibition Assay
Inhibition of elastase by the test samples was assayed using N-succyl-(Ala)3-nitroanilide (SANA) as the substrate, monitoring the release of p-nitroanilide by the method described by Chompo et al. with little adjustment. The inhibitory activity determined the intensity of colour released during cleavage of SANA by the action of elastase. Briefly, 1 mM SANA was prepared in 0.1 M Tris-HCl buffer pH 8.0 and 200 µL of this solution was added to the 20 µL of sample solution in a 96-Well plate. The mixtures were vortexed and preincubated for 10 min at 25 °C and then 20 µL of elastase from porcine pancrease (0.03 units/mL) was added. The mixtures were further incubated for 10 min and the absorbance was measured at 410 nm. Methanol was used as control, while oleanolic acid used as a positive control.

[4] = tested on: Fe (II)-induced microsomal lipid peroxidation (rat liver microsomes); assay: Inhibition of Fe (II)-induced microsomal lipid peroxidation; assay type: biochemical; conditions: TBARS, purified compounds screened at 26.750 μg/mL, extract (HT) at 100 μg/mL
Text: 3.4.4. Inhibition of Fe (II)-Induced Microsomal Lipid Peroxidation Assay
A modified assay described by Snijman et al. with little modifications.

[5] = Copper-initiated prooxidant activity in the ORAC assay (Cu2+ without H2O2); conditions: Cu2+ (CuSO4) 18 µM without H2O2, 37 °C; prooxidant (arbitrary) units
Protocol: as §1, §2

[6] = Ferric-ion reducing antioxidant power assay (FRAP); conditions: ascorbic acid equivalents; absorbance 593 nm
Protocol: 3.4.1. Ferric-Ion Reducing Antioxidant Power Assay (FRAP)
Working FRAP reagent was prepared in accordance to the methods described previously. […] L-Ascorbic acid was used as a standard and the results were expressed as μM ascorbic acid equivalents per […] dry weight (μM AAE/g DW) of the test samples.

[7] = Trolox equivalent absorbance capacity (TEAC) assay; conditions: Trolox equivalents; absorbance 734 nm, 25 °C
Protocol: 3.4.3. Trolox Equivalent Absorbance Capacity (TEAC) Assay
The total antioxidant activity of test samples were measured using previously described methods.

[8] = target: tyrosinase (from mushroom) (Agaricus bisporus, UniProt C7FF04); assay: Tyrosinase enzyme assay; assay type: biochemical; conditions: substrate L-Tyrosine; screened at effective concentration of 50 μg/mL
Protocol: as §3
Samples were dissolved in DMSO to a stock solution of 1 mg/mL, and further dilutions were then done with 50 mM sodium phosphate buffer (pH 6.5) for all working solutions. […] Incubation commenced for 30 min at room temperature and the enzyme activity was determined by measuring the absorbance at 490 nm.

T1 sequence (P00772 27-266): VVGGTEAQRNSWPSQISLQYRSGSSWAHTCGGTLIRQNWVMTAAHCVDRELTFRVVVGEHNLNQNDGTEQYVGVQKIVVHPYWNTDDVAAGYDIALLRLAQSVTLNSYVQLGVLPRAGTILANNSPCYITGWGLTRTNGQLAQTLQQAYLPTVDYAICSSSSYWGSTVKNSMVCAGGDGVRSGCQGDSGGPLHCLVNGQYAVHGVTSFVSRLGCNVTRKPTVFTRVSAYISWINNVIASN
Chain of tyrosinase (from mushroom) (C7FF04 1-392): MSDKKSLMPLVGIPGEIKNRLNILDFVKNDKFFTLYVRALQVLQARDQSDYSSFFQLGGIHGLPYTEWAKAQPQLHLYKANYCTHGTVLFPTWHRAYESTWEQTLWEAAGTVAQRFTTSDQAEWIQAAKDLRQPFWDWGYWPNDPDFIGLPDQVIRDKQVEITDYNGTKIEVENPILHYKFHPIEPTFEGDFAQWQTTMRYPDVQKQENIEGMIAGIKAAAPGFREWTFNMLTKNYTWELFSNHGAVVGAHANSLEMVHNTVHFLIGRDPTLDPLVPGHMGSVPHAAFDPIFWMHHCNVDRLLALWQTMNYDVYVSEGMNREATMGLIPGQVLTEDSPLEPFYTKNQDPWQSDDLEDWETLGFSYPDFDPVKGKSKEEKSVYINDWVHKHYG

Row | Compound | Automated Oxygen Radical Absorbance Capacity (ORAC μM TE/g) ROO. [1] [μM/g × 10^3] | Automated Oxygen Radical Absorbance Capacity (ORAC μM TE/g) OH. [2] [μM/g × 10^6] | IC50 [3] [µM] | Inhibitory Activitis (IC50) Lipid Peroxidation [4] [µg/mL] | Automated Oxygen Radical Absorbance Capacity (ORAC μM TE/g) Prooxidant [5] [µM/g] | FRAP [6] | TEAC [7] [μM TE/g] | Inhibitory Activitis (IC50) Tyrosinase [8] [µg/mL] | Inhibitory Activitis (IC50) Elastase [3] [µg/mL]
1 | CC(C)=CCOc1cc(O)c(C(=O)/C=C/c2ccccc2)c2c1C=CC(C)(C)O2 [Compound 1, 2'-hydroxy-5',6'-(2,2-dimethylpyrano)-4'-(O-prenyl)-chalcone] | 2.833 ± 3.88 | 2.998 ± 1.67 | > 256 | >26.750 | 2.036 ± 2.98 |  |  |  | 
2 | CC(C)=CCc1c(O)cc(O)c(C(=O)/C=C/c2ccccc2)c1O [Compound 3, 2',4',6'-trihydroxy-3'-prenylchalcone] | 5.025 ± 6.16 | 3.771 ± 3.02 | > 308 | 21.276 | 4.704 ± 0.27 | 817.94 ± 4.26 μM AAE/g | 4529.01 ± 2.44 |  | 
3 | CC(C)=CCc1c(O)cc2c(c1O)C(=O)C[C@@H](c1ccccc1)O2 [Compound 4, isoglabranin] | 1.063 ± 33.50 | 2.918 ± 4.13 | > 308 | >26.750 | 3.947 ± 0.29 | 7.052 ± 3.76 μM AAE/g | 43.17 ± 6.26 |  | 
4 | CC(C)=CCc1c(O)cc(O)c2c1O[C@H](c1ccccc1)CC2=O [Compound 5, glabranin] | 0.856 ± 17.35 | 2.997 ± 0.36 | > 308 | >26.750 | 2.971 ± 1.10 | 67.79 ± 14.27 μM AAE/g | 204.15 ± 2.04 |  | 
5 | O=c1c(O)c(-c2ccc(O)c(O)c2)oc2cc(O)cc(O)c12 [Compound 7, quercetin] | 17.836 ± 2.90 | 7.265 ± 0.71 |  | 2.931 | 4.361 ± 0.78 | 4816 ± 7.42 μM AAE/g and 4816.31 ± 7.42 μM AAE/g | 1361.70 ± 1.98 |  | 
6 | COc1ccc(-c2oc3cc(O)cc(O)c3c(=O)c2O)cc1O [Compound 8, 4'-methoxyquercetin] | 12.545 ± 5.07 | 6.779 ± 3.40 | 274 | 6.449 | 8.963 ± 2.79 | 3584.17 ± 0.54 μM AAE/g | 1009.01 ± 1.98 |  | 
7 | COc1ccc(-c2oc3cc(O)cc(O)c3c(=O)c2O)cc1 [Compound 9, 4'-methoxykaempferol] | 10.491 ± 0.97 | 3.675 ± 1.40 | > 333 | 10.520 | 3.790 ± 1.15 | 191.47 ± 1.39 μM AAE/g | 261.30 ± 4.02 |  | 
8 | COc1cc2oc(-c3ccccc3)cc(=O)c2c(O)c1OC [Compound 10, mosloflavone] | 2.403 ± 2.50 | 2.909 ± 8.41 | > 335 | 10.720 | 6.482 ± 1.55 | 544.60 ± 6.98 μM AAE/g | 699.66 ± 2.28 |  | 
9 | O=C(O[C@@H]1Cc2c(O)cc(O)cc2O[C@@H]1c1cc(O)c(O)c(O)c1)c1cc(O)c(O)c(O)c1 [EGCG, epigallocatechin gallate, reference compound] | 14.970 ± 5.53 | 3.911 ± 4.65 |  | 0.929 | 6.483 ± 1.19 | 3326.45 ± 5.76 μM AAE/g | 11545.4 ± 17.28 |  | 
10 | isoxanthohumol [Compound 2] | 3.113 ± 17.59 | 2.910 ± 6.00 |  | >26.750 | 3.601 ± 2.23 | 619.91 ± 1.97 μM AAE/g | 4170.66 ± 6.72 | >50 | >100
